Experimental data taken from ChEMBL document CHEMBL1201862, “PubChem BioAssay data set” (2004).
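1) Cells in 96-well plates. 2) Compound, 48 h, 5 concentrations. 3) Linear interpolation between surrounding doses. 4) Unreached endpoint = highest concentration. GI50 marks 50% less growth.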 Active and inactive are the calls of the source. No stated cut-off is given here; in the data, active = GI50 up to about 1.1 µM and inactive = higher.

Assays:
Assay in all cases: inhibition of tumour cell growth, NCI panel, 48 h
A549 = test system: A549
EKVX = test system: EKVX
786-0 = test system: 786-0
NCI-H522 = test system: NCI-H522
SW-620 = test system: SW-620
Hs-578T = test system: Hs-578T
HCT-15 = test system: HCT-15
SK-MEL-28 = test system: SK-MEL-28
SN12C = test system: SN12C
SF-268 = test system: SF-268
SNB-75 = test system: SNB-75
PC-3 = test system: PC-3
ACHN = test system: ACHN
T47D = test system: T47D
MDA-MB-435 = test system: MDA-MB-435
OVCAR-5 = test system: OVCAR-5
RPMI-8226 = test system: RPMI-8226
HT-29 = test system: HT-29
K562 = test system: K562
OVCAR-4 = test system: OVCAR-4
DU-145 = test system: DU-145
OVCAR-8 = test system: OVCAR-8
NCI-H460 = test system: NCI-H460
NCI-H226 = test system: NCI-H226
COLO 205 = test system: COLO 205
CCRF-CEM = test system: CCRF-CEM
IGROV-1 = test system: IGROV-1
SF-295 = test system: SF-295
SR = test system: SR
SK-MEL-5 = test system: SK-MEL-5
SK-MEL-2 = test system: SK-MEL-2
HCT-116 = test system: HCT-116
MDA-N = test system: MDA-N
NCI-H23 = test system: NCI-H23
KM12 = test system: KM12
HOP-62 = test system: HOP-62
U-251 = test system: U-251
M14 = test system: M14
MDA-MB-231 = test system: MDA-MB-231
SK-OV-3 = test system: SK-OV-3
UACC-62 = test system: UACC-62
HL-60 = test system: HL-60
NCI/ADR-RES = test system: NCI/ADR-RES
UACC-257 = test system: UACC-257
HCC 2998 = test system: HCC 2998
UO-31 = test system: UO-31
SNB-19 = test system: SNB-19
CAKI-1 = test system: CAKI-1
Malme-3M = test system: Malme-3M
A498 = test system: A498
LOX IMVI = test system: LOX IMVI
OVCAR-3 = test system: OVCAR-3
SF-539 = test system: SF-539
MCF7 = test system: MCF7
TK-10 = test system: TK-10
BT-549 = test system: BT-549
HOP-92 = test system: HOP-92

Measured: GI50

OCCOc1ccccc2cccc1-2
> 100 µM: HCT-15
inactive: A549 > 100 µM | EKVX > 100 µM | 786-0 > 100 µM | NCI-H522 > 100 µM | SW-620 > 100 µM | Hs-578T > 100 µM | SK-MEL-28 > 100 µM | SN12C > 100 µM | SF-268 > 100 µM | SNB-75 > 100 µM | PC-3 > 100 µM | ACHN > 100 µM | T47D 47.1 µM | MDA-MB-435 > 100 µM | OVCAR-5 > 100 µM | RPMI-8226 61.8 µM | HT-29 > 100 µM | K562 84.7 µM | OVCAR-4 34 µM | DU-145 > 100 µM | OVCAR-8 > 100 µM | NCI-H460 73.6 µM | NCI-H226 > 100 µM | COLO 205 > 100 µM | CCRF-CEM > 100 µM | IGROV-1 > 100 µM | SF-295 > 100 µM | SR 80 µM | SK-MEL-5 > 100 µM | SK-MEL-2 > 100 µM | HCT-116 > 100 µM | MDA-N > 100 µM | NCI-H23 > 100 µM | KM12 > 100 µM | HOP-62 > 100 µM | U-251 > 100 µM | M14 > 100 µM | MDA-MB-231 > 100 µM | SK-OV-3 > 100 µM | UACC-62 > 100 µM | HL-60 > 100 µM | NCI/ADR-RES > 100 µM | UACC-257 > 100 µM | HCC 2998 > 100 µM | UO-31 > 100 µM | SNB-19 > 100 µM | CAKI-1 > 100 µM | Malme-3M > 100 µM | A498 > 100 µM | LOX IMVI > 100 µM | OVCAR-3 > 100 µM | SF-539 > 100 µM | MCF7 > 100 µM | TK-10 > 100 µM | BT-549 > 100 µM | HOP-92 > 100 µM
